Values quoted from earlier work, collected in patent US20030114534A1, “Pharmaceutical preparation for apthous ulcers” (priority 2001, published 2003).

Test system: apthous lesions
Details: applied locally, 250 mg. in 10 ml. of water, three times a day

In the case of CN(C)[C@@H]1C(O)=C(C(N)=O)C(=O)[C@@]2(O)C(O)=C3C(=O)c4c(O)ccc(Cl)c4[C@@](C)(O)[C@H]3C[C@@H]12 [Aureomycin], the analgesic effect lasting is given as “one-half to two”.
